ChEMBL document CHEMBL3039007, “Structure-based identification of OATP1B1/3 inhibitors” (Mol Pharmacol, 2013)

Key:
[1] = target: T1, Solute carrier organic anion transporter family member 1B1 (Homo sapiens, UniProt Q9Y6L6); conditions: chinese hamster, cho, 10 µM
T1 sequence (Q9Y6L6 whole entry): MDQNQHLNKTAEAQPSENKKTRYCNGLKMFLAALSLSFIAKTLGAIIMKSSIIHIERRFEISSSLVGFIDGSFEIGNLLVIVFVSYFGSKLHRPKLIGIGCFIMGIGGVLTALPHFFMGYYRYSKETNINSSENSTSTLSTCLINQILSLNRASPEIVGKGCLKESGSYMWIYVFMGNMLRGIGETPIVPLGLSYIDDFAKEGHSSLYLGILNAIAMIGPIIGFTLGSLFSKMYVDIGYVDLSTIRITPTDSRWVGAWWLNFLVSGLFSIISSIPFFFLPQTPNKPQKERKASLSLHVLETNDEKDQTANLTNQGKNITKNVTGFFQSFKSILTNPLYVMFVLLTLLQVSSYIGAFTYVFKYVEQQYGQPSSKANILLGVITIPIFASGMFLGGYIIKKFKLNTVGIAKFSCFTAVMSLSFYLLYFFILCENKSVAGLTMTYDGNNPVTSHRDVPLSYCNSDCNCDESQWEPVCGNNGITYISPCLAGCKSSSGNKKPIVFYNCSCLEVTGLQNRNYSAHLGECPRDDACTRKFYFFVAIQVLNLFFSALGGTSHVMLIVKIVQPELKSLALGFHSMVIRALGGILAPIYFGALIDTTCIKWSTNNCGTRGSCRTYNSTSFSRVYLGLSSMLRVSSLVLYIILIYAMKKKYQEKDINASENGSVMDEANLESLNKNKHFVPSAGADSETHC

[2] = target: T2, Solute carrier organic anion transporter family member 1B3 (Homo sapiens, UniProt Q9NPD5); conditions: chinese hamster, cho, 10 µM
T2 sequence (Q9NPD5 whole entry): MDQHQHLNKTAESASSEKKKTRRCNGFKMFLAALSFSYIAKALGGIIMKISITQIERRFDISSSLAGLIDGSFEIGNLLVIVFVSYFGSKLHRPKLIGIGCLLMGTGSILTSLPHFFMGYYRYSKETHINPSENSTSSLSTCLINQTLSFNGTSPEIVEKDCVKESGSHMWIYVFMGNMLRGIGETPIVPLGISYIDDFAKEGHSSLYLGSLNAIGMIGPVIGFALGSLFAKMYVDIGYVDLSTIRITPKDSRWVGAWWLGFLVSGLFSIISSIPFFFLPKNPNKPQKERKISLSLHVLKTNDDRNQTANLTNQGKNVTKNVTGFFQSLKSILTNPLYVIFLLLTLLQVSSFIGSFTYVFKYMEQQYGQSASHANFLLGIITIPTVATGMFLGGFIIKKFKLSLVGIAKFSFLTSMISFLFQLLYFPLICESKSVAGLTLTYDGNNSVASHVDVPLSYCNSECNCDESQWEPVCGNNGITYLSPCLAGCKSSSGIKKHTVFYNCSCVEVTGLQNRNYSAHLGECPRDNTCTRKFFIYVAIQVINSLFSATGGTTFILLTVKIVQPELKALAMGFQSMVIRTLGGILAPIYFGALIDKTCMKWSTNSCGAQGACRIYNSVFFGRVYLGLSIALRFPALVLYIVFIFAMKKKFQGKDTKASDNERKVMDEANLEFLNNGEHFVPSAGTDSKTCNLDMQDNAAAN

| SMILES | residual activity [1] [%] | residual activity [2] [%] |
| --- | --- | --- |
| C/C=C(\C)C(=O)O[C@@H]1[C@@H]2C=C3[C@@H]4CC(=O)O[C@@H](c5ccoc5)[C@]4(C)CC[C@@H]3[C@@](C)(C2=O)[C@@H]([C@@H](O)C(=O)OC)C1(C)C [SWIETENINE] | 14.03 | 69.9 |
| COC(=O)[C@H](O)[C@H]1C(C)(C)[C@H](OC(C)=O)[C@@H]2CC3=C4CC(=O)O[C@@H](c5ccoc5)[C@]4(C)CC[C@@H]3[C@@]1(C)C2=O [SWIETENOLIDE-3-ACETATE] | 54.05 | 66.25 |
| O=C(O)c1cc(O)c2c(c1)[C@H]([C@H]1c3cc(C(=O)O)cc(O)c3C(=O)c3c(O[C@@H]4O[C@H](CO)[C@@H](O)[C@H](O)[C@H]4O)cccc31)c1cccc(O[C@@H]3O[C@H](CO)[C@@H](O)[C@H](O)[C@H]3O)c1C2=O [Sennoside A] | 122.9 | 111.1 |
| CNC(=O)N(C)c1nnc(C(C)(C)C)s1 [TEBUTHIURON] | 87.52 | 111.4 |
| CCCCCNC(=N)N/N=C/c1c[nH]c2ccc(OC)cc12.O=C(O)/C=C\C(=O)O [TEGASEROD MALEATE] | 73.16 | 112.9 |
| Cc1scc2c1N(C(=O)CN1CCN(C)CC1)c1ccccc1NC2=O.Cl [TELENZEPINE HYDROCHLORIDE] | 99.27 | 93.24 |
| COP(=S)(OC)Oc1ccc(Sc2ccc(OP(=S)(OC)OC)cc2)cc1 [TEMEFOS] | 144.3 | 89.27 |
| COc1cc([C@@H]2c3cc4c(cc3[C@@H](O[C@@H]3O[C@@H]5CO[C@@H](c6cccs6)O[C@H]5[C@H](O)[C@H]3O)[C@H]3COC(=O)[C@H]23)OCO4)cc(OC)c1O [TENIPOSIDE] | 25.44 | 32.58 |
| CN1C(C(=O)Nc2ccccn2)=C(O)c2sccc2S1(=O)=O [TENOXICAM] | 78.82 | 78.1 |
| CCC(=O)O[C@H]1CC[C@H]2[C@@H]3CCC4=CC(=O)CC[C@]4(C)[C@H]3CC[C@]12C [TESTOSTERONE PROPIONATE] | 121 | 133.5 |
| CCCCNc1ccc(C(=O)OCCN(C)C)cc1.Cl [TETRACAINE HYDROCHLORIDE] | 61.91 | 88.3 |
| CN(C)[C@@H]1C(O)=C(C(N)=O)C(=O)[C@@]2(O)C(O)=C3C(=O)c4c(O)cccc4[C@@](C)(O)[C@H]3C[C@@H]12.Cl [TETRACYCLINE HYDROCHLORIDE] | 118.1 | 97.72 |
| O=C(O)Cc1cc(I)c(Oc2cc(I)c(O)c(I)c2)c(I)c1 [TETRAC] | 33.41 | 71.42 |
| C[C@]12CC[C@@H](O)C[C@H]1CC[C@@H]1[C@@H]2C(=O)C[C@@]2(C)[C@H]1CC[C@]2(O)C(=O)CO [TETRAHYDROCORTISONE] | 101.6 | 99.93 |
| COc1cc2c(cc1OC)[C@@H]1Cc3ccc(OC)c(OC)c3CN1CC2 [TETRAHYDROPALMATINE] | 186.7 | 106.9 |
| COc1ccc2c(c1)OC[C@@H](Cc1ccc(OC)c(OC)c1)[C@H]2O [TETRAHYDROSAPPANONE A TRIMETHYL ETHER] | 93.05 | 134.3 |
| O=C1C(O)=C(O)C(=O)C(O)=C1O [TETROQUINONE] | 121.2 | 83.15 |
| O=C1CCC(N2C(=O)c3ccccc3C2=O)C(=O)N1 (stereo not given) [THALIDOMIDE] | 82.94 | 101 |
| O=c1c(O)cccc2c([C@H]3Oc4cc(O)cc(O)c4C[C@H]3O)cc(O)c(O)c12 [THEAFLAVANIN] | 60 | 85.59 |
| O=C(O[C@@H]1Cc2c(O)cc(O)cc2O[C@@H]1c1cc(O)c(=O)c2c(O)c(O)cc([C@H]3Oc4cc(O)cc(O)c4C[C@H]3O)c2c1)c1cc(O)c(O)c(O)c1 [THEAFLAVIN MONOGALLATES] | 89.76 | 103.8 |
| O=c1c(O)cc([C@H]2Oc3cc(O)cc(O)c3C[C@H]2O)cc2c([C@H]3Oc4cc(O)cc(O)c4C[C@H]3O)cc(O)c(O)c12 [THEAFLAVIN] | 53 | 75.27 |
| CCNC(=O)CC[C@H](N)C(=O)O [THEANINE] | 120.6 | 82.21 |
| O=C(O[C@@H]1Cc2c(O)cc(O)cc2O[C@@H]1c1cc(O)c(O)c(O)c1-c1c([C@H]2Oc3cc(O)cc(O)c3C[C@H]2OC(=O)c2cc(O)c(O)c(O)c2)cc(O)c(O)c1O)c1cc(O)c(O)c(O)c1 [THEASINENSIN A] | 61.1 | 94.99 |

| SMILES | residual activity [1] [%] | residual activity [2] [%] |
| --- | --- | --- |
| Cn1c(=O)c2[nH]cnc2n(C)c1=O.O [THEOPHYLLINE] | 90.11 | 72.46 |
| c1ccc2[nH]c(-c3cscn3)nc2c1 [THIABENDAZOLE] | 76.75 | 94.36 |
| CS(=O)(=O)c1ccc([C@@H](O)[C@@H](CO)NC(=O)C(Cl)Cl)cc1 [THIAMPHENICOL] | 102.1 | 103.5 |
| C=CCC1(C(C)CCC)C(=O)N=C([S-])NC1=O.[Na+] (stereo not given) [THIAMYLAL SODIUM] | 84.73 | 103.8 |
| CCCC(C)C1(CC)C(=O)[N-]C(=S)NC1=O.[Na+] (stereo not given) [THIOPENTAL SODIUM] | 73.02 | 84.51 |
| COC(=O)NC(=S)Nc1ccccc1NC(=S)NC(=O)OC [THIOPHANATE METHYL] | 119 | 92.95 |
| S=P(N1CC1)(N1CC1)N1CC1 [THIOTEPA] | 67.53 | 70.43 |
| CN1CCN(CC/C=C2/c3ccccc3Sc3ccc(S(=O)(=O)N(C)C)cc32)CC1 [THIOTHIXENE] | 72.97 | 115.8 |
| O=c1cc[nH]c(=S)[nH]1 [THIOURACIL] | 95.34 | 77.62 |
| CN(C)C(=S)SSC(=S)N(C)C [THIRAM] | 104.4 | 99.01 |
| COc1ccc(CN(CCN(C)C)c2ncccn2)cc1.Cl [THONZYLAMINE HYDROCHLORIDE] | 88.59 | 91.98 |
| CC1=CC(=O)C(C(C)C)=CC1=O [THYMOQUINONE] | 126.4 | 98.24 |
| CCN(CC)CCNC(=O)c1cc(S(C)(=O)=O)ccc1OC.Cl [TIAPRIDE HYDROCHLORIDE] | 106.2 | 94.93 |
| C[C@@H]1CC[C@@]2(OC1)O[C@H]1C[C@H]3[C@@H]4CC[C@H]5C[C@@H](O)CC[C@]5(C)[C@H]4CC[C@]3(C)[C@H]1[C@@H]2C [TIGOGENIN] | 97 | 106.8 |
| CNC(=N)NCCC[C@H](N)C(=O)O [TILARGININE] | 94.97 | 97.33 |
| CC(C)(C)NC[C@H](O)COc1nsnc1N1CCOCC1.O=C(O)/C=C\C(=O)O [TIMOLOL MALEATE] | 113.3 | 102.2 |
| O=c1oc2cc(O)ccc2s1 [TIOXOLONE] | 67.3 | 76.34 |
| NC[C@H]1O[C@H](O[C@H]2[C@H](O)[C@@H](O[C@H]3O[C@H](CO)[C@@H](O)[C@H](N)[C@H]3O)[C@H](N)C[C@@H]2N)[C@H](N)C[C@@H]1O [TOBRAMYCIN] | 197.1 | 105.2 |
| CCOC(=O)NNc1nncc2ccccc12.Cl [TODRALAZINE HYDROCHLORIDE] | 100.5 | 106.5 |
| Cl.c1ccc(CC2=NCCN2)cc1 [TOLAZOLINE HYDROCHLORIDE] | 74.2 | 98.49 |
| CCCCNC(=O)NS(=O)(=O)c1ccc(C)cc1 [TOLBUTAMIDE] | 125.3 | 99.86 |
| Cc1c(Cl)cccc1Nc1ccccc1C(=O)O [TOLFENAMIC ACID] | 95.07 | 77.01 |
